# Measurements published in patent US10537523B2, “Oral suspension comprising telmisartan” (Boehringer Ingelheim Vetmedica GmbH, priority 2009, dated 2020).
# Assay: pH-dependent solubility of telmisartan in aqueous formulation
# Assay type: physicochemical
# Details: concentrations of active substance greater than 1 mg/ml
# From the text: The aim of the present invention is to provide a pharmaceutical solution, preferably a drinkable pharmaceutical solution containing an angiotensin-II-receptor antagonist. Preferred angiotensin II receptor antagonists are the substances known by the following INN names: candesartan, eprosartan, irbesartan, losartan, olmesartan, tasosartan, telmisartan and valsartan, and the pharmaceutically acceptable salts, hydrates or polymorphs thereof. The concentration of the angiotensin-II-receptor antagonist, preferably telmisartan, needed in the solution in order to achieve therapeutic doses should be between 1 mg/ml and 10 mg/ml. Moreover, because of the strongly pH-dependent solubility profile of telmisartan an aqueous formulation should have a pH that is either less than 2 or more than 10, in order to ensure a physically stable solution.
# The very powerfully astringent effect of such acidic solutions makes acidic formulations of this kind totally unsuitable for long-term use particularly in children but also in domestic pets such as dogs and cats.
# It has thus been shown that the stability of a drinkable telmisartan solution is dependent on the amount of reducing sugar contained in the sugar alcohol. The stability of a drinkable telmisartan solution deteriorates as the content of reducing sugars increases. […]
structure (smiles),measurement,value
"CCCc1nc2c(C)cc(-c3nc4ccccc4n3C)cc2n1Cc1ccc(-c2ccccc2C(=O)O)cc1 [telmisartan, 4′-((2-n-propyl-4-methyl-6-(1-methylbenz-imidazol-2-yl)-benzimidazol-1-yl)methyl)biphenyl-2-carboxylic acid]",pH needed for dissolved active substance in acid range,less than 1.5
